Test results as given in ChEMBL document CHEMBL4706623, “GPR52 Antagonist Reduces Huntingtin Levels and Ameliorates Huntington's Disease-Related Phenotypes” (J Med Chem, 2021).

Target: G-protein coupled receptor 52 (Homo sapiens, UniProt Q9Y2T5)
Experiment: Antagonist activity at GPR52 (unknown origin) expressed in HEK293 cells assessed as inhibition of WO459-induced cAMP accumulation preincubated for 15 mins followed by WO459 addition and measured after 30 mins by LANCE Ultra cAMP kit based microplate reader analysis
Assay type: functional, cell-based
Conditions: read-out: IC50

Sequence of G-protein coupled receptor 52 (Q9Y2T5 whole entry): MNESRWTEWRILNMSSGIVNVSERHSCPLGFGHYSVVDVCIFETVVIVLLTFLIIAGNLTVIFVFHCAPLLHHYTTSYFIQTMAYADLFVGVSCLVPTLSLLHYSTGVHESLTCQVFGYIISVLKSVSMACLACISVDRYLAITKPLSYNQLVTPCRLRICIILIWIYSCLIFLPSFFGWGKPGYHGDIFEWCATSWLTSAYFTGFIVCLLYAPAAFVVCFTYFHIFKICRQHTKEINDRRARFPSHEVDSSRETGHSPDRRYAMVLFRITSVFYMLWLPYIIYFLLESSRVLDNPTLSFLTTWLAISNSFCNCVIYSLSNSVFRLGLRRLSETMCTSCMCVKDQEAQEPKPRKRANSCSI

Compound `O=C(/C=C/CCc1ccccc1)c1ccc(-c2ccccc2)cc1` has an IC50 of 7.64 µM.
